Test results published in patent US7101878B1 (Agouron Pharmaceuticals, Inc., priority 1998, dated 2006).

The compounds below were run against T1, mouse GnRH receptor (Mus musculus, UniProt Q01776) (assay: Radioligand binding, 125I-GnRH-A, 293 cells expressing mouse GnRH receptors). Conditions: 10 uM; read-out: % Inhib. @ 10 uM mGnRH.
T1 construct: expressed in transfected cells; host or cells: 293 cells
T1 sequence (Q01776 1-327): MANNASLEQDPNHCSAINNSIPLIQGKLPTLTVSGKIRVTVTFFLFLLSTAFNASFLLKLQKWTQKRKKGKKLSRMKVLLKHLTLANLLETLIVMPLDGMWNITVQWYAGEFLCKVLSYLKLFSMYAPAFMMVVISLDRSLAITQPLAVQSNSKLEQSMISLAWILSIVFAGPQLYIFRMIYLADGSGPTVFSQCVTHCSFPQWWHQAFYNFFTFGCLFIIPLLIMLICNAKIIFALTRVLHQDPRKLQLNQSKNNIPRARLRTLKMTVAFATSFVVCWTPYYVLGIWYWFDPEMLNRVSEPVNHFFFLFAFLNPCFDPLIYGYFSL
Method: All compounds were diluted in 1% DMSO (final assay concentration) in binding assay buffer. […] Reactions were terminated by rapid filtration onto 96-well Packard GF/C filters soaked in 0.1% polyethyleneimine. Filters were washed three times with PBS buffer, dried and counted on a Packard Topcount by liquid scintillation counting.
Assay conditions were identical for assessing compound activities at other species. […] IC50 values for control peptides and test compounds were calculated utilizing GraphPad Prism™ software.
The reaction mixture was vortexed and incubated for 1 min at room temperature. After one min, the mixture was vortexed and allowed to incubate for an additional minute. 2 ml of 0.5 M acetic acid/1% BSA was added to the reaction tube and the mixture was added to a C18 Sep-Pak cartridge. The cartridge was washed with subsequent washes of 5 ml H2O and 5 ml 0.5M acetic acid and then eluted with 5×1 ml of 60% CH3CN/40% 0.5M acetic acid. The eluate was diluted with 3× volume of HPLC buffer A (0.1% TFA in H2O) and loaded onto a C18 column. […] The radioactive fractions (750 ed/fraction) are collected into clean polypropylene tubes containing 100 μl of 10% BSA. Fractions were assessed for biological activity by radioligand binding.
An inhibition at 10 µM of 66% was found for `Cc1cc2c(cc1Cc1ccc(C(=O)N3CCN(Cc4ccc5c(c4)OCO5)CC3)o1)C(C)(C)CCC2(C)C` in this work.
An inhibition at 10 µM of 96% was found for `CCN1CCCC1CNC(=O)c1ccc(Cc2cc3c(cc2C)C(C)(C)CCC3(C)C)o1` (stereo not shown) in this work.
An inhibition at 10 µM of 83% was found for `Cc1cc2c(cc1Cc1ccc(C(=O)N3CCN(Cc4ccccc4)CC3)o1)C(C)(C)CCC2(C)C` in this work.
An inhibition at 10 µM of 63% was found for `Cc1cc2c(cc1Cc1ccc(C(=O)N3CCN(CC(=O)NC(C)C)CC3)o1)C(C)(C)CCC2(C)C` in this work.
An inhibition at 10 µM of 65% was found for `C=CCN(C(=O)c1ccc(Cc2cc3c(cc2C)C(C)(C)CCC3(C)C)o1)C1CCCCC1` in this work.
An inhibition at 10 µM of 94% was found for `Cc1cc2c(cc1Cc1ccc(C(=O)N3CCCC4CCCCC43)o1)C(C)(C)CCC2(C)C` (stereo not shown) in this work.
An inhibition at 10 µM of 21% was found for `CCN(CC)C(=O)C1CCCN(C(=O)c2ccc(Cc3cc4c(cc3C)C(C)(C)CCC4(C)C)o2)C1` (stereo not shown) in this work.
An inhibition at 10 µM of 84% was found for `Cc1cc2c(cc1Cc1ccc(C(=O)N3CCCCC3CO)o1)C(C)(C)CCC2(C)C` (stereo not shown) in this work.
An inhibition at 10 µM of 100% was found for `Cc1cc2c(cc1Cc1ccc(C(=O)N3CCCCC3CCO)o1)C(C)(C)CCC2(C)C` (stereo not shown) in this work.
An inhibition at 10 µM of 66% was found for `Cc1cc2c(cc1Cc1ccc(C(=O)N3CCN(CCCO)CC3)o1)C(C)(C)CCC2(C)C` in this work.
An inhibition at 10 µM of 99% was found for `Cc1cc2c(cc1Cc1ccc(C(=O)N(CCCCO)Cc3ccccc3)o1)C(C)(C)CCC2(C)C` in this work.
An inhibition at 10 µM of 9% was found for `Cc1cc2c(cc1Cc1ccc(C(=O)N3Cc4ccccc4CC3C(=O)NCC(c3ccccc3)c3ccccc3)o1)C(C)(C)CCC2(C)C` (stereo not shown) in this work.
An inhibition at 10 µM of 86% was found for `Cc1cc2c(cc1Cc1ccc(C(=O)N3CCN(C/C=C/c4ccccc4)CC3)o1)C(C)(C)CCC2(C)C` in this work.
An inhibition at 10 µM of 82% was found for `Cc1cc2c(cc1Cc1ccc(C(=O)N[C@H]3CC[C@@H](O)CC3)o1)C(C)(C)CCC2(C)C` in this work.
An inhibition at 10 µM of 63% was found for `CC(=O)NC1CCN(C(=O)c2ccc(Cc3cc4c(cc3C)C(C)(C)CCC4(C)C)o2)C1` (stereo not shown) in this work.
An inhibition at 10 µM of 14% was found for `Cc1cc2c(cc1Cc1ccc(C(=O)NCC(O)CO)o1)C(C)(C)CCC2(C)C` (stereo not shown) in this work.
An inhibition at 10 µM of 91% was found for `CCN1CC(NC(=O)c2ccc(Cc3cc4c(cc3C)C(C)(C)CCC4(C)C)o2)CN1CC` in this work.
An inhibition at 10 µM of 96% was found for `CCCN(CC1CC1)C(=O)c1ccc(Cc2cc3c(cc2C)C(C)(C)CCC3(C)C)o1` in this work.
An inhibition at 10 µM of 66% was found for `CCOC(=O)CN1CCN(C(=O)c2ccc(Cc3cc4c(cc3C)C(C)(C)CCC4(C)C)o2)CC1` in this work.
An inhibition at 10 µM of 89% was found for `Cc1cc2c(cc1Cc1ccc(C(=O)N(C)C3CCN(C)C3)o1)C(C)(C)CCC2(C)C` (stereo not shown) in this work.
An inhibition at 10 µM of 73% was found for `COc1ccc(N2CCN(C(=O)c3ccc(Cc4cc5c(cc4C)C(C)(C)CCC5(C)C)o3)CC2C)cc1` (stereo not shown) in this work.
An inhibition at 10 µM of 100% was found for `Cc1cc2c(cc1Cc1ccc(C(=O)N3CCCCC3C)o1)C(C)(C)CCC2(C)C` (stereo not shown) in this work.
An inhibition at 10 µM of 97% was found for `Cc1cc2c(cc1Cc1ccc(C(=O)N3CCN(CCc4ccccc4)CC3)o1)C(C)(C)CCC2(C)C` in this work.
An inhibition at 10 µM of 79% was found for `Cc1cc2c(cc1Cc1ccc(C(=O)N(Cc3cccnc3)Cc3cccc4ccccc34)o1)C(C)(C)CCC2(C)C` in this work.
An inhibition at 10 µM of 79% was found for `Cc1cc2c(cc1Cc1ccc(C(=O)N(Cc3cccnc3)Cc3ccc(Cl)c(Cl)c3)o1)C(C)(C)CCC2(C)C` in this work.
An inhibition at 10 µM of 99% was found for `Cc1cc2c(cc1Cc1ccc(C(=O)N(Cc3cccnc3)Cc3ccoc3)o1)C(C)(C)CCC2(C)C` in this work.
An inhibition at 10 µM of 73% was found for `Cc1cc2c(cc1Cc1ccc(C(=O)NC3CCCC3)o1)C(C)(C)CCC2(C)C` in this work.
An inhibition at 10 µM of 97% was found for `Cc1cc2c(cc1Cc1ccc(C(=O)N(C)C3CCCCC3)o1)C(C)(C)CCC2(C)C` in this work.
An inhibition at 10 µM of 58% was found for `CCCCC(CC)COCCCNC(=O)c1ccc(Cc2cc3c(cc2C)C(C)(C)CCC3(C)C)o1` (stereo not shown) in this work.
An inhibition at 10 µM of 34% was found for `Cc1cc2c(cc1Cc1ccc(C(=O)N(CCO)CCO)o1)C(C)(C)CCC2(C)C` in this work.
An inhibition at 10 µM of 43% was found for `Cc1cc2c(cc1Cc1ccc(C(=O)N(Cc3ccccc3Cl)C3CCN(Cc4ccccc4)CC3)o1)C(C)(C)CCC2(C)C` in this work.
An inhibition at 10 µM of 74% was found for `Cc1cc2c(cc1Cc1ccc(C(=O)N3CCC[C@H]3C(N)=O)o1)C(C)(C)CCC2(C)C` in this work.
An inhibition at 10 µM of 91% was found for `CCCCCNC(=O)c1ccc(Cc2cc3c(cc2C)C(C)(C)CCC3(C)C)o1` in this work.
An inhibition at 10 µM of 100% was found for `CCC1CCCCN1C(=O)c1ccc(Cc2cc3c(cc2C)C(C)(C)CCC3(C)C)o1` (stereo not shown) in this work.
